Target: T1, human clotting factor VIIa (Homo sapiens, UniProt P08709)
T1 construct: a human clotting factor VIIa (hereinafter, “Factor VIIa”) purified sample; purchased Enzyme Research Laboratories HFVIIa
Experiment: Inhibitory activity against clotting factor VIIa (chromogenic substrate Spectrozyme FVIIa, TF/Factor VIIa enzyme solution)
Type: biochemical
Settings: human Factor VIIa 5 nmol/L with human TF 10 nmol/L, room temperature 40 minutes, 405 nm
Method in brief: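 Human Factor VIIa (5 nmol/L) with human TF (10 nmol/L) in Tris-BSA buffer pH 7.4 containing 15 mmol/L CaCl2 and cephalin, with Spectrozyme FVIIa substrate. Reaction 40 min at room temperature; 4-nitroanilide read at 405 nm. IC50 by non-linear regression over 100 μmol/L–0.1 nmol/L.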

T1 sequence (P08709 213-466 limits assumed): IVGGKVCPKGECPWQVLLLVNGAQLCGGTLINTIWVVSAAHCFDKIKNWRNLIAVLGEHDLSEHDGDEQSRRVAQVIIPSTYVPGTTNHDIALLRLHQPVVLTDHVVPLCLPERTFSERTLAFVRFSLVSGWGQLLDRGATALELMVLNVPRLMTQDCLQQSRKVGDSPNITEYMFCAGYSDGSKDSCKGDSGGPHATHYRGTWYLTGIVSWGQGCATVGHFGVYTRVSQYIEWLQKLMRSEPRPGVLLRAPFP
T1 sequence (P08709 61-212 limits assumed): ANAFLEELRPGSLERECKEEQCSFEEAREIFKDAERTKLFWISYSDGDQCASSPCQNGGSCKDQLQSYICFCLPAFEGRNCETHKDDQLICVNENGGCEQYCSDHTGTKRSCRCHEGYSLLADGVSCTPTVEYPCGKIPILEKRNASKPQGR
T1 sequence (P13726 33-295 partner): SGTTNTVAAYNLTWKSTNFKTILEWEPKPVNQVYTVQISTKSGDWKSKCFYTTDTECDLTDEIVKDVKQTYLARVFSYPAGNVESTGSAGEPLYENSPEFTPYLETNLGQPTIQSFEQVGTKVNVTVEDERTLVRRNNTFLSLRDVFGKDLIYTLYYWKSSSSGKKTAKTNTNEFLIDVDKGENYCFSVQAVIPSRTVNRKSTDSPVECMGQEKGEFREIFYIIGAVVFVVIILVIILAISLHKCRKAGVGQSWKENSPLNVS

`CCOc1cc(C(Nc2ccc(C(=N)N)cc2)c2nn(-c3ccccc3C(=O)O)c(=O)[nH]2)c(F)cc1OC` (racemic) [Example 122, (R) and (S)-2-{3[(4-carbamimidoylphenylamino)-(5-ethoxy-2-fluoro-4-methoxyphenyl)methyl]-5-oxo-4,5-dihydro-[1,2,4]triazol-1-yl}benzoic acid acetate] was tested, and the IC50 was 2 nM.

For `COc1cc(C(Nc2ccc(C(=N)N)cc2)c2nn(-c3ncccc3F)c(=O)[nH]2)cc2c1OCC2` (racemic) [Example 123, (R) and (S)-4-({[1-(3-fluoropyridin-2-yl)-5-oxo-4,5-dihydro-1H-[1,2,4]triazol-3-yl]-(7-methoxy-2,3-dihydrobenzofuran-5-yl)methyl}amino)benzamidine acetate], the IC50 was 4.6 nM.

In the case of `COCCc1cc(C(Nc2ccc(C(=N)N)cc2)c2nn(-c3ncccn3)c(=O)[nH]2)cc(OC)c1OC` (racemic) [Example 129, (R) and (S)-4-({[3,4-dimethoxy-5-(2-methoxyethyl)-phenyl]-(5-oxo-1-pyrimidin-2-yl-4,5-dihydro-1H-[1,2,4]triazol-3-yl)methyl}amino)benzamidine acetate], the IC50 is reported as 7.5 nM.

Work on `COc1cc(C(Nc2ccc(C(=N)N)cc2)c2nn(-c3ncccn3)c(=O)[nH]2)cc2c1OCOCC2` (racemic) [Example 130, (R) and (S)-4-{[(4-methoxy-8,9-dihydro-5,7-dioxabenzocyclohepten-2-yl)-(5-oxo-1-pyrimidin-2-yl-4,5-dihydro-1H-[1,2,4]triazol-3-yl)methyl]amino}benzamidine acetate] yielded an IC50 of 10.6 nM.

Compound `COc1cc(C(Nc2ccc(C(=N)N)cc2)c2nn(-c3ncccn3)c(=O)[nH]2)cc(CC#N)c1F` (racemic) [Example 131, (R) and (S)-4-{[(3-cyanomethyl-4-fluoro-5-methoxyphenyl)-(5-oxo-1-pyrimidin-2-yl-4,5-dihydro-1H-[1,2,4]triazol-3-yl)methyl]amino}benzamidine acetate] has an IC50 of 5.6 nM.

`CCOc1cc(C(Nc2ccc(C(=N)N)cc2)c2nn(-c3ncccc3F)c(=O)[nH]2)ccc1OC` (racemic) [Example 132, (R) and (S)-4-({(3-ethoxy-4-methoxyphenyl)-[1-(3-fluoro-pyridin-2-yl)-5-oxo-4,5-dihydro-1H-[1,2,4]triazol-3-yl]methyl}amino}benzamidine acetate] gave an IC50 of 2.4 nM.

`COc1cc(C(Nc2ccc(C(=N)N)cc2)c2nn(-c3ncccc3F)c(=O)[nH]2)cc2c1OCOC2` (racemic) [Example 133, (R) and (S)-4-({[1-(3-fluoropyridin-2-yl)-5-oxo-4,5-dihydro-1H-[1,2,4]triazol-3-yl]-(8-methoxy-4H-benzo[1,3]dioxin-6-yl)methyl}amino)benzamidine acetate] was tested, and the IC50 was 6.3 nM.

Compound `COc1cc(OCCF)c(F)c(C(Nc2ccc(C(=N)N)cc2)c2nn(-c3ncccc3N)c(=O)[nH]2)c1` (racemic) [Example 136, (R) and (S)-4-({[1-(3-aminopyridin-2-yl)-5-oxo-4,5-dihydro-1H-[1,2,4]triazol-3-yl]-[2-fluoro-3-(2-fluoroethoxy)-5-methoxyphenyl]methyl}amino)benzamidine acetate] has an IC50 of 5.1 nM.

`COc1cc(OC)c(F)c(C(Nc2ccc(C(=N)N)cc2)c2nn(-c3ncccc3N)c(=O)[nH]2)c1` (racemic) [Example 137, (R) and (S)-4-({[1-(3-aminopyridin-2-yl)-5-oxo-4,5-dihydro-1H-[1,2,4]triazol-3-yl]-(2-fluoro-3,5-dimethoxyphenyl)methyl}amino)benzamidine acetate] gave an IC50 of 10.3 nM.

`COc1cc(F)c(C(Nc2ccc(C(=N)N)c(F)c2)c2nn(-c3ncccn3)c(=O)[nH]2)cc1OC` (racemic) [Example 143, (R) and (S)-2-fluoro-4-{[(2-fluoro-4,5-dimethoxyphenyl)-(5-oxo-1-pyrimidin-2-yl-4,5-dihydro-1H-[1,2,4]triazol-3-yl)methyl]amino}benzamidine acetate] was tested, and the IC50 was 23 nM.

In the case of `COc1cc(C(Nc2ccc(C(=N)N)cc2)c2nn(-c3cccnn3)c(=O)[nH]2)ccc1OCC#N` (racemic) [Example 144, (R) and (S)-4-{[(4-cyanomethoxy-3-methoxyphenyl)-(5-oxo-1-pyridazin-3-yl-4,5-dihydro-1H-[1,2,4]triazol-3-yl)methyl]amino}benzamidine acetate], the IC50 is reported as 7.7 nM.

In the case of `COc1cc(OC)c(F)c(C(Nc2ccc(C(=N)N)cc2)c2nn(-c3cccnn3)c(=O)[nH]2)c1` (racemic) [Example 145, (R) and (S)-4-{[(2-fluoro-3,5-dimethoxyphenyl)-(5-oxo-1-pyridazin-3-yl-4,5-dihydro-1H-[1,2,4]triazol-3-yl)methyl]amino}benzamidine acetate], the IC50 is reported as 8.7 nM.

`COc1cc(C(Nc2ccc(C(=N)N)cc2)c2nn(-c3cccnn3)c(=O)[nH]2)cc(CC#N)c1F` (racemic) [Example 146, (R) and (S)-4-{[(3-cyanomethyl-4-fluoro-5-methoxyphenyl)-(5-oxo-1-pyridazin-3-yl-4,5-dihydro-1H-[1,2,4]triazol-3-yl)methyl]amino}benzamidine acetate] showed an IC50 of 8.1 nM.

Work on `COc1cc(OCC#N)c(F)c(C(Nc2ccc(C(=N)N)cc2)c2nn(-c3cccnn3)c(=O)[nH]2)c1` (racemic) [Example 148, (R) and (S)-{[(3-cyanomethoxy-2-fluoro-5-methoxyphenyl)-(5-oxo-1-pyridazin-3-yl-4,5-dihydro-1H-[1,2,4]triazol-3-yl)methyl]amino}benzamidine acetate] yielded an IC50 of 8.7 nM.

Work on `COc1ccc(C(Nc2ccc(C(=N)N)cc2)c2nn(-c3cccnn3)c(=O)[nH]2)cc1OC` (racemic) [Example 149, (R) and (S)-4-{[(3,4-dimethoxyphenyl)-(5-oxo-1-pyridazin-3-yl-4,5-dihydro-1H-[1,2,4]triazol-3-yl)methyl]amino}benzamidine acetate] yielded an IC50 of 9.2 nM.

`COc1cc(C(Nc2ccc(C(=N)N)cc2)c2nn(-c3cccnn3)c(=O)[nH]2)cc2c1OCOC2` (racemic) [Example 150, (R) and (S)-4-{[(8-methoxy-4H-benzo[1,3]dioxin-6-yl)-(5-oxo-1-pyridazin-3-yl-4,5-dihydro-1H[1,2,4]triazol-3-yl)methyl]amino}benzamidine acetate] was tested, and the IC50 was 9 nM.

`COc1cc(OCCF)c(F)c(C(Nc2ccc(C(=N)N)cc2)c2nn(-c3cccnn3)c(=O)[nH]2)c1` (racemic) [Example 151, (R) and (S)-4-{[(2-fluoro-3-(2-fluoroethoxy)-5-methoxyphenyl)-(5-oxo-1-pyridazin-3-yl-4,5-dihydro-1H-[1,2,4]triazol-3-yl)methyl]amino}benzamidine acetate] showed an IC50 of 5.4 nM.

`COC(=O)c1sccc1-n1nc(C(Nc2ccc(C(=N)N)cc2)c2cc3c(c(OC)c2)OCOC3)[nH]c1=O` (racemic) [Example 152, (R) and (S)-3-{3-[(4-carbamimidoylphenylamino)-(8-methoxy-4H-benzo[1,3]dioxin-6-yl)methyl]-5-oxo-4,5-dihydro[1,2,4]triazol-1-yl}thiophene-2-carboxylic acid methyl ester acetate] showed an IC50 of 1.2 nM.

`COc1cc(OCCO)c(F)c(C(Nc2ccc(C(=N)N)cc2)c2nn(-c3ncccn3)c(=O)[nH]2)c1` (racemic) [Example 153, 4-({[2-fluoro-3-(2-hydroxyethoxy)-5-methoxyphenyl]-(5-oxo-1-pyrimidin-2-yl-4,5-dihydro-1H-[1,2,4]triazol-3-yl)methyl}amino)benzamidine] gave an IC50 of 4.8 nM.

In the case of `COc1cc(OC)c(F)c(C(Nc2ccc(C(=N)N)cc2)c2nn(-c3ncc[nH]c3=O)c(=O)[nH]2)c1` (racemic) [Example 154, (R) and (S)-4-({(2-fluoro-3,5-dimethoxyphenyl)-[5-oxo-1-(3-oxo-3,4-dihydropyrazin-2-yl)]-4,5-dihydro-1H-[1,2,4]triazol-3-yl]methyl}amino)benzamidine acetate], the IC50 is reported as 21 nM.

With `COc1ccc(C(Nc2ccc(C(=N)N)cc2)c2nn(-c3ccsc3C(=O)O)c(=O)[nH]2)cc1OC` (racemic) [Example 155, (R) and (S)-3-{3-[(4-carbamimidoylphenylamino)-(3,4-dimethoxyphenyl)methyl]-5-oxo-4,5-dihydro[1,2,4]triazol-1-yl}thiophene-2-carboxylic acid acetate] the IC50 was 2.3 nM.

For `COc1cc(C(Nc2ccc(C(=N)N)cc2)c2nn(-c3ncccn3)c(=O)[nH]2)cc2c1OCCCO2` (racemic) [Example 156, (R) and (S)-4-{[(9-methoxy-3,4-dihydro-2H-benzo[b][1,4]dioxepin-7-yl)-(5-oxo-1-pyrimidin-2-yl-4,5-dihydro-1H-[1,2,4]triazol-3-yl)methyl]amino}benzamidine acetate], the IC50 was 5.2 nM.

For `COc1cc(OCCCO)cc(C(Nc2ccc(C(=N)N)cc2)c2nn(-c3ncccn3)c(=O)[nH]2)c1` (racemic) [Example 158, 4-({[3-(3-hydroxypropoxy)-5-methoxyphenyl]-(5-oxo-1-pyrimidin-2-yl-4,5-dihydro-1H-[1,2,4]triazol-3-yl)methyl}amino)benzamidine], the IC50 was 5.1 nM.

`COc1cc(C(Nc2ccc(C(=N)N)cc2)c2nn(-c3ncccn3)c(=O)[nH]2)cc(OCCO)c1OC` (racemic) [Example 159, 4-({(R) and (S)-[3-(2-hydroxyethoxy)-4,5-dimethoxyphenyl]-(5-oxo-1-pyrimidin-2-yl-4,5-dihydro-1H-[1,2,4]triazol-3-yl)methyl}amino)benzamidine acetate] showed an IC50 of 11.7 nM.

With `CCOc1cc(C(Nc2ccc(C(=N)N)cc2)c2nn(-c3ncccn3)c(=O)[nH]2)cnc1OC` (racemic) [Example 160, 4-{[(R) and (S)-(5-ethoxy-6-methoxypyridin-3-yl)-(5-oxo-1-pyrimidin-2-yl-4,5-dihydro-1H-[1,2,4]triazol-3-yl)methyl]amino}benzamidine acetate] the IC50 was 9.4 nM.
